From US20200247800A1, “SUBSTITUTED BICYCLIC HETEROCYCLIC COMPOUNDS AS NADPH OXIDASE INHIBITORS” (Glenmark Pharmaceuticals S.A., priority 2017, published 2020)
Structures can show the parent of a compound that is named as a salt.

Biological target: T1, human NOX4 (Homo sapiens, UniProt Q9NPH5)
T1 construct: expressed in transfected cells; membrane fraction used
T1 sequence (Q9NPH5 1-578): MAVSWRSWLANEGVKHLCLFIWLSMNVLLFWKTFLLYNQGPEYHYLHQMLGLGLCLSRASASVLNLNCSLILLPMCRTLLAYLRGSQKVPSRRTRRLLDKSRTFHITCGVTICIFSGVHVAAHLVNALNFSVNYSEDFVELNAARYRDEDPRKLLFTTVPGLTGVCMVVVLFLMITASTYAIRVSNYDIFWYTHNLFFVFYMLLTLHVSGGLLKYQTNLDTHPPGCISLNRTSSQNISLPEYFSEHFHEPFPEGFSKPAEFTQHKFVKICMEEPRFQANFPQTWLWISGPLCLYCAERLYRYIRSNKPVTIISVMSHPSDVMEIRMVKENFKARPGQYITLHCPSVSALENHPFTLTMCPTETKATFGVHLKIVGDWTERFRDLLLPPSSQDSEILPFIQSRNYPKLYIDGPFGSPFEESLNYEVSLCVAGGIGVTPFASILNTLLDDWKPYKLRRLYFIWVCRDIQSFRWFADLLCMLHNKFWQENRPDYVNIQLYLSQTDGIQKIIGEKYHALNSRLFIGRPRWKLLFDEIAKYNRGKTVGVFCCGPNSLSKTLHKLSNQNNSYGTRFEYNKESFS
T1 sequence (P13498 1-195 partner): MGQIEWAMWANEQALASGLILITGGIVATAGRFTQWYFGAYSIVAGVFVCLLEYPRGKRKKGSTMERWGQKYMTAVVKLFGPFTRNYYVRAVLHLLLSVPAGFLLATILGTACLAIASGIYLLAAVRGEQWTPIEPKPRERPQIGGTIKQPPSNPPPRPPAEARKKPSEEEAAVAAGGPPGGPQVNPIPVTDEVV
Experiment: Cell free membrane based in vitro NOX4 assay: H2O2 production by membranes expressing human NOX4, measured with Amplex Red
Assay type: biochemical
Conditions: for inhibition at 1 µM / Percentage inhibition at 1.0 μM: 1.0 μM compound; for inhibition at 1 µM: read-out: Percentage inhibition at 1.0 μM; for inhibition at 10 µM / Percentage inhibition at 10.0 μM: 10.0 μM compound; for inhibition at 10 µM: read-out: Percentage inhibition at 10.0 μM; for IC50: class symbols
Method in brief: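 IC50 came from concentration-response curves fitted as % of the inhibitor-free maximum. H2O2 formation was monitored for 10 min via Amplex Red/HRP fluorescence (544/590 nm) after NADPH start. Membranes from a stable hNOX4/HEK line had 20 min exposure to inhibitor beforehand at pH 7.4.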

Structure (SMILES) | inhibition at 1 µM [%] | inhibition at 10 µM [%] | IC50 [nM] | Percentage inhibition at 1.0 μM [%] | Percentage inhibition at 10.0 μM [%] | Percentage inhibition at 1.0 μM (hydrochloride) [%] | Percentage inhibition at 10.0 μM (hydrochloride, 10 µM) [%]
Cc1nn(C)c2[nH]c(-c3ccc(F)cc3F)c(O)c(=O)c12 [Example 14, 6-(2,4-Difluorophenyl)-5-hydroxy-1,3-dimethyl-1,7-dihydro-4H-pyrazolo[3,4-b]pyridin-4-one] | 100 | 82.5 | 50 to 100 |  |  |  | 
Cc1nn(C)c2[nH]c(-c3ccc(Cl)cc3Cl)c(O)c(=O)c12 [Example 11, 6-(2,4-Dichlorophenyl)-5-hydroxy-1,3-dimethyl-1,7-dihydro-4H-pyrazolo[3,4-b]pyridin-4-one] | 76.6 | 76.5 | 100 to 150 |  |  |  | 
CCn1nc(C)c2c(=O)c(O)c(-c3c(F)cc(OC)cc3F)[nH]c21 [Example 118, 6-(2,6-Difluoro-4-methoxyphenyl)-1-ethyl-5-hydroxy-3-methyl-1H-pyrazolo[3,4-b]pyridin-4(7H)-one] | 78.8 | 77.5 | 50 to 100 |  |  |  | 
Cn1nc(CN2CCN(CC(F)(F)F)CC2)c2c(=O)c(O)c(-c3c(F)cccc3F)[nH]c21 [Example 220, 6-(2,6-Difluorophenyl)-5-hydroxy-1-methyl-3-((4-(2,2,2-trifluoroethyl)piperazin-1-yl)methyl)-1H-pyrazolo[3,4-b]pyridin-4(7H)-one] |  |  | > 150 | 87.57 | 100.00 |  | 
CCn1nc(C)c2c(=O)c(O)c(-c3ccc(OC)cc3F)[nH]c21 [Example 69, 1-Ethyl-6-(2-fluoro-4-methoxyphenyl)-5-hydroxy-3-methyl-1H-pyrazolo[3,4-b]pyridin-4(7H)-one] | 67.2 |  | > 150 |  |  |  | 
CC(C)c1nn(C)c2[nH]c(-c3c(F)cccc3F)c(O)c(=O)c12 [Example 91, 6-(2,6-Difluorophenyl)-5-hydroxy-3-isopropyl-1-methyl-1H-pyrazolo[3,4-b]pyridin-4(7H)one] | 98.3 | 87.1 | 50 to 100 |  |  |  | 
CCc1nn(CCN2CCOCC2=O)c2[nH]c(-c3ccccc3Cl)c(O)c(=O)c12 [Example 167, 4-(2-(6-(2-Chlorophenyl)-3-ethyl-5-hydroxy-4-oxo-4,7-dihydro-1H-pyrazolo[3,4-b]pyridin-1-yl)ethyl)morpholin-3-one] | 86 | 71.8 | 50 to 100 |  |  |  | 
Cc1nn(CCN(C)C)c2[nH]c(-c3ccccc3Cl)c(O)c(=O)c12 [Example 80, 6-(2-Chlorophenyl)-1-(2-(dimethylamino)ethyl)-5-hydroxy-3-methyl-1H-pyrazolo[3,4-b]pyridin-4(7H)-one] | 94 | 97.5 | 50 to 100 |  |  |  | 
CCc1nn(CCN2CCOCC2)c2[nH]c(-c3ccccc3Cl)c(O)c(=O)c12 [Example 238, 6-(2-Chlorophenyl)-3-ethyl-5-hydroxy-1-(2-morpholinoethyl)-1H-pyrazolo[3,4-b]pyridin-4(7H)-one hydrochloride] |  |  | > 150 |  |  | 80.17 | 71.20
CCn1nc(C)c2c(=O)c(O)c(-c3ccc(N)cc3F)[nH]c21 [Example 119, 6-(4-Amino-2-fluorophenyl)-1-ethyl-5-hydroxy-3-methyl-1,7-dihydro-4H-pyrazolo[3,4-b]pyridin-4-one] | 66.9 |  | > 150 |  |  |  | 
Cc1nn(-c2cccc(F)c2)c2[nH]c(-c3ccccc3Cl)c(O)c(=O)c12 [Example 34, 6-(2-Chlorophenyl)-1-(3-fluorophenyl)-5-hydroxy-3-methyl-1,7-dihydro-4H-pyrazolo[3,4-b]pyridin-4-one] | 100 | 100 | < 50 |  |  |  | 
COCc1nn(C)c2[nH]c(-c3c(F)cccc3F)c(O)c(=O)c12 [Example 102, 6-(2,6-Difluorophenyl)-5-hydroxy-3-(methoxymethyl)-1-methyl-1H-pyrazolo[3,4-b]pyridin-4(7H)-one] | 86.2 | 91.5 | 50 to 100 |  |  |  | 
COc1ccc(-c2[nH]c3c(c(C)nn3CC(F)(F)F)c(=O)c2O)c(F)c1 [Example 70, 6-(2-Fluoro-4-methoxyphenyl)-5-hydroxy-3-methyl-1-(2,2,2-trifluoroethyl)-1H-pyrazolo[3,4-b]pyridin-4(7H)-one] | 97.5 | 98.4 | > 150 |  |  |  | 
Cc1nn(CCN2CCNCC2)c2[nH]c(-c3ccccc3Cl)c(O)c(=O)c12 [Example 177, 6-(2-Chlorophenyl)-5-hydroxy-3-methyl-1-(2-(piperazin-1-yl)ethyl)-1H-pyrazolo[3,4-b]pyridin-4(7H)-one] | 68.6 | 50.1 | > 150 |  |  |  | 
Cn1nc(C(F)(F)F)c2c(=O)c(O)c(-c3c(F)cccc3Cl)[nH]c21 [Example 45, 6-(2-Chloro-6-fluorophenyl)-5-hydroxy-1-methyl-3-(trifluoromethyl)-1,7-dihydro-4H-pyrazolo[3,4-b]pyridin-4-one] | 89.1 | 98.6 | 100 to 150 |  |  |  | 
Cc1nn(CCCN2CCOCC2)c2[nH]c(-c3ccccc3Cl)c(O)c(=O)c12 [Example 147, 6-(2-Chlorophenyl)-5-hydroxy-3-methyl-1-(3-morpholinopropyl)-1H-pyrazolo[3,4-b]pyridin-4(7H)-one] | 94.3 | 64.9 | 100 to 150 |  |  |  | 
Cn1nc(-c2ccc(F)cc2)c2c(=O)c(O)c(-c3c(F)cccc3F)[nH]c21 [Example 113, 6-(2,6-Difluorophenyl)-3-(4-fluorophenyl)-5-hydroxy-1-methyl-1H-pyrazolo[3,4-b]pyridin-4(7H)-one] | 91.3 | 92.3 | 50 to 100 |  |  |  | 
Cc1nn(CCN2CCOCC2)c2[nH]c(-c3cccc(C(F)(F)F)c3F)c(O)c(=O)c12 [Example 153, 6-(2-fluoro-3-(trifluoromethyl)phenyl)-5-hydroxy-3-methyl-1-(2-morpholinoethyl)-1H-pyrazolo[3,4-b]pyridin-4(7H)-one] | 100 | 93 | > 150 |  |  |  | 
Cc1nn(-c2cccc(F)c2)c2[nH]c(-c3c(F)cccc3F)c(O)c(=O)c12 [Example 35, 6-(2,6-Difluorophenyl)-1-(3-fluorophenyl)-5-hydroxy-3-methyl-1,7-dihydro-4H-pyrazolo[3,4-b]pyridin-4-one] | 100 | 100 | < 50 |  |  |  | 
COc1ccc(-c2[nH]c3c(c(C)nn3C)c(=O)c2O)c(Cl)c1 [Example 18, 6-(2-Chloro-4-methoxyphenyl)-5-hydroxy-1,3-dimethyl-1,7-dihydro-4H-pyrazolo[3,4-b]pyridin-4-one] | 78.6 | 78.4 | 100 to 150 |  |  |  | 
COc1ccc(-c2[nH]c3c(c(C(F)(F)F)nn3C)c(=O)c2O)cc1 [Example 53, 5-Hydroxy-6-(4-methoxyphenyl)-1-methyl-3-(trifluoromethyl)-1,7-dihydro-4H-pyrazolo[3,4-b]pyridin-4-one] | 90.5 | 84.6 | 100 to 150 |  |  |  | 
Cn1nc(C(F)F)c2c(=O)c(O)c(-c3c(F)cccc3F)[nH]c21 [Example 86, 3-(Difluoromethyl)-6-(2,6-difluorophenyl)-5-hydroxy-1-methyl-1H-pyrazolo[3,4-b]pyridin-4(7H)-one] | 74.5 | 89.8 | > 150 |  |  |  | 
Cn1nc(C(F)(F)F)c2c(=O)c(O)c(-c3ccc(-n4ccnc4)cc3)[nH]c21 [Example 54, 5-Hydroxy-6-[4-(1H-imidazol-1-yl)phenyl]-1-methyl-3-(trifluoromethyl)-1,7-dihydro-4H-pyrazolo[3,4-b]pyridin-4-one] | 92.1 | 94.5 | 100 to 150 |  |  |  | 
Cn1nc(C2CCOCC2)c2c(=O)c(O)c(-c3ccccc3Cl)[nH]c21 [Example 193, 6-(2-Chlorophenyl)-5-hydroxy-1-methyl-3-(tetrahydro-2H-pyran-4-yl)-1H-pyrazolo[3,4-b]pyridin-4(7H)-one] | 84.7 | 75.4 | < 50 |  |  |  | 
CCc1nn(C)c2[nH]c(-c3ccc(OC)cc3F)c(O)c(=O)c12 [Example 72, 3-Ethyl-6-(2-fluoro-4-methoxyphenyl)-5-hydroxy-1-methyl-1H-pyrazolo[3,4-b]pyridin-4(7H)-one] | 82.2 |  | 100 to 150 |  |  |  | 
CCn1nc(C)c2c(=O)c(O)c(-c3cccc(F)c3F)[nH]c21 [Example 95, 6-(2,3-Difluorophenyl)-1-ethyl-5-hydroxy-3-methyl-1H-pyrazolo[3,4-b]pyridin-4(7H)-one] | 71.1 | 62.6 | > 150 |  |  |  | 
